Results: the NIST ThermoML archive (doi:10.1016/j.jct.2005.04.015)
± gives the expanded uncertainty stated by the source.

Experiment: excess molar enthalpy (molar enthalpy of mixing); xn = mol fraction of the nth substance listed
Settings: Liquid, Flow calorimetry

CCOC=O [ethyl methanoate] + CC(C)O
Settings	excess molar enthalpy [kcal/mol]
298.15 K, 5000 kPa, x1 = 0.0498	0.0806 ± 0.00177
298.15 K, 5000 kPa, x1 = 0.0993	0.158 ± 0.00335
298.15 K, 5000 kPa, x1 = 0.1485	0.221 ± 0.00478
298.15 K, 5000 kPa, x1 = 0.2008	0.276 ± 0.00598
298.15 K, 5000 kPa, x1 = 0.2493	0.317 ± 0.00669
298.15 K, 5000 kPa, x1 = 0.3009	0.35 ± 0.00741
298.15 K, 5000 kPa, x1 = 0.3488	0.373 ± 0.00789
298.15 K, 5000 kPa, x1 = 0.3997	0.391 ± 0.00837
298.15 K, 5000 kPa, x1 = 0.4503	0.4 ± 0.0086
298.15 K, 5000 kPa, x1 = 0.5005	0.403 ± 0.0086
298.15 K, 5000 kPa, x1 = 0.5504	0.398 ± 0.0086
298.15 K, 5000 kPa, x1 = 0.5999	0.389 ± 0.00837
298.15 K, 5000 kPa, x1 = 0.6492	0.372 ± 0.00789
298.15 K, 5000 kPa, x1 = 0.7013	0.344 ± 0.00741
298.15 K, 5000 kPa, x1 = 0.7498	0.311 ± 0.00669
298.15 K, 5000 kPa, x1 = 0.8012	0.267 ± 0.00574
298.15 K, 5000 kPa, x1 = 0.8997	0.156 ± 0.00335
298.15 K, 5000 kPa, x1 = 0.95	0.0857 ± 0.00189
298.15 K, 10000 kPa, x1 = 0.0497	0.0741 ± 0.00163
298.15 K, 10000 kPa, x1 = 0.099	0.152 ± 0.00335
298.15 K, 10000 kPa, x1 = 0.1516	0.218 ± 0.00478
298.15 K, 10000 kPa, x1 = 0.2003	0.271 ± 0.00574
298.15 K, 10000 kPa, x1 = 0.2487	0.311 ± 0.00669
298.15 K, 10000 kPa, x1 = 0.3002	0.345 ± 0.00741
298.15 K, 10000 kPa, x1 = 0.3514	0.368 ± 0.00789
298.15 K, 10000 kPa, x1 = 0.3989	0.383 ± 0.00813
298.15 K, 10000 kPa, x1 = 0.4495	0.393 ± 0.00837
298.15 K, 10000 kPa, x1 = 0.4997	0.396 ± 0.00837
298.15 K, 10000 kPa, x1 = 0.5496	0.393 ± 0.00837
298.15 K, 10000 kPa, x1 = 0.5991	0.384 ± 0.00813
298.15 K, 10000 kPa, x1 = 0.6484	0.368 ± 0.00789
298.15 K, 10000 kPa, x1 = 0.7006	0.34 ± 0.00717
298.15 K, 10000 kPa, x1 = 0.7492	0.31 ± 0.00669
298.15 K, 10000 kPa, x1 = 0.8006	0.265 ± 0.00574
298.15 K, 10000 kPa, x1 = 0.8994	0.157 ± 0.00335
298.15 K, 10000 kPa, x1 = 0.9499	0.0864 ± 0.00189
308.15 K, 10000 kPa, x1 = 0.0487	0.0511 ± 0.00115
308.15 K, 10000 kPa, x1 = 0.1	0.139 ± 0.00311
308.15 K, 10000 kPa, x1 = 0.1511	0.211 ± 0.00454
308.15 K, 10000 kPa, x1 = 0.1988	0.267 ± 0.00574
308.15 K, 10000 kPa, x1 = 0.2492	0.313 ± 0.00669
308.15 K, 10000 kPa, x1 = 0.2993	0.351 ± 0.00741
308.15 K, 10000 kPa, x1 = 0.349	0.378 ± 0.00813
308.15 K, 10000 kPa, x1 = 0.4013	0.398 ± 0.0086
308.15 K, 10000 kPa, x1 = 0.4504	0.409 ± 0.00884
308.15 K, 10000 kPa, x1 = 0.4992	0.413 ± 0.00884
308.15 K, 10000 kPa, x1 = 0.5505	0.409 ± 0.00884
308.15 K, 10000 kPa, x1 = 0.5987	0.399 ± 0.0086
308.15 K, 10000 kPa, x1 = 0.6996	0.353 ± 0.00765
308.15 K, 10000 kPa, x1 = 0.7496	0.319 ± 0.00693
308.15 K, 10000 kPa, x1 = 0.7993	0.278 ± 0.00598
308.15 K, 10000 kPa, x1 = 0.8513	0.226 ± 0.00478
308.15 K, 10000 kPa, x1 = 0.9003	0.163 ± 0.00359
308.15 K, 10000 kPa, x1 = 0.949	0.0911 ± 0.00198

CCOC=O [ethyl methanoate] + CCC(C)O
excess molar enthalpy [kcal/mol]
Settings	298.15 K	308.15 K
5000 kPa, x1 = 0.1504	0.234 ± 0.00502	–
5000 kPa, x1 = 0.1997	0.29 ± 0.00621	–
5000 kPa, x1 = 0.2497	0.336 ± 0.00717	–
5000 kPa, x1 = 0.3005	0.373 ± 0.00789	–
5000 kPa, x1 = 0.3501	0.4 ± 0.0086	–
5000 kPa, x1 = 0.4005	0.418 ± 0.00884	–
5000 kPa, x1 = 0.4497	0.429 ± 0.00908	–
5000 kPa, x1 = 0.4996	0.432 ± 0.00932	–
5000 kPa, x1 = 0.5502	0.427 ± 0.00908	–
5000 kPa, x1 = 0.5995	0.414 ± 0.00884	–
5000 kPa, x1 = 0.6496	0.394 ± 0.00837	–
5000 kPa, x1 = 0.7003	0.365 ± 0.00789	–
5000 kPa, x1 = 0.7496	0.328 ± 0.00693	–
5000 kPa, x1 = 0.7996	0.284 ± 0.00598	–
5000 kPa, x1 = 0.8996	0.156 ± 0.00335	–
5000 kPa, x1 = 0.9494	0.0812 ± 0.00179	–
10000 kPa, x1 = 0.0492	0.0843 ± 0.00184	–
10000 kPa, x1 = 0.0496	–	0.101 ± 0.0022
10000 kPa, x1 = 0.0992	0.17 ± 0.00359	–
10000 kPa, x1 = 0.1	–	0.197 ± 0.0043
10000 kPa, x1 = 0.15	0.243 ± 0.00526	–
10000 kPa, x1 = 0.1513	–	0.276 ± 0.00598
10000 kPa, x1 = 0.1985	0.3 ± 0.00645	–
10000 kPa, x1 = 0.2007	–	0.337 ± 0.00717
10000 kPa, x1 = 0.2509	0.348 ± 0.00741	0.386 ± 0.00837
10000 kPa, x1 = 0.2992	–	0.422 ± 0.00908
10000 kPa, x1 = 0.301	0.383 ± 0.00813	–
10000 kPa, x1 = 0.3487	0.407 ± 0.0086	–
10000 kPa, x1 = 0.351	–	0.451 ± 0.00956
10000 kPa, x1 = 0.4004	0.425 ± 0.00908	–
10000 kPa, x1 = 0.4008	–	0.47 ± 0.01
10000 kPa, x1 = 0.4495	0.436 ± 0.00932	–
10000 kPa, x1 = 0.4514	–	0.479 ± 0.0103
10000 kPa, x1 = 0.4994	0.439 ± 0.00932	–
10000 kPa, x1 = 0.4999	–	0.481 ± 0.0103
10000 kPa, x1 = 0.5491	–	0.475 ± 0.01
10000 kPa, x1 = 0.5501	0.433 ± 0.00932	–
10000 kPa, x1 = 0.599	–	0.46 ± 0.0098
10000 kPa, x1 = 0.6015	0.42 ± 0.00908	–
10000 kPa, x1 = 0.6497	–	0.436 ± 0.00932
10000 kPa, x1 = 0.6502	0.402 ± 0.0086	–
10000 kPa, x1 = 0.6996	0.373 ± 0.00789	–
10000 kPa, x1 = 0.7011	–	0.405 ± 0.0086
10000 kPa, x1 = 0.7497	0.331 ± 0.00717	–
10000 kPa, x1 = 0.7502	–	0.363 ± 0.00789
10000 kPa, x1 = 0.8	–	0.314 ± 0.00669
10000 kPa, x1 = 0.8006	0.284 ± 0.00598	–
10000 kPa, x1 = 0.8485	0.223 ± 0.00478	–
10000 kPa, x1 = 0.8506	–	0.255 ± 0.0055
10000 kPa, x1 = 0.8986	–	0.185 ± 0.00406
10000 kPa, x1 = 0.9008	0.154 ± 0.00335	–
10000 kPa, x1 = 0.95	0.0895 ± 0.00196	–
10000 kPa, x1 = 0.9506	–	0.0966 ± 0.0021

CCOC=O [ethyl methanoate] + CCCCCO
298.15 K
Settings	excess molar enthalpy [kcal/mol]
5000 kPa, x1 = 0.0502	0.0619 ± 0.00139
5000 kPa, x1 = 0.0995	0.145 ± 0.00311
5000 kPa, x1 = 0.1505	0.22 ± 0.00478
5000 kPa, x1 = 0.2006	0.279 ± 0.00598
5000 kPa, x1 = 0.2494	0.324 ± 0.00693
5000 kPa, x1 = 0.2998	0.361 ± 0.00765
5000 kPa, x1 = 0.3487	0.388 ± 0.00837
5000 kPa, x1 = 0.3992	0.404 ± 0.0086
5000 kPa, x1 = 0.4514	0.409 ± 0.0086
5000 kPa, x1 = 0.4984	0.41 ± 0.00884
5000 kPa, x1 = 0.5503	0.406 ± 0.0086
5000 kPa, x1 = 0.6002	0.392 ± 0.00837
5000 kPa, x1 = 0.6516	0.372 ± 0.00789
5000 kPa, x1 = 0.7007	0.346 ± 0.00741
5000 kPa, x1 = 0.7513	0.312 ± 0.00669
5000 kPa, x1 = 0.7992	0.269 ± 0.00574
5000 kPa, x1 = 0.8484	0.215 ± 0.00454
5000 kPa, x1 = 0.899	0.151 ± 0.00335
5000 kPa, x1 = 0.951	0.0755 ± 0.00167
10000 kPa, x1 = 0.05	0.0947 ± 0.00208
10000 kPa, x1 = 0.0992	0.177 ± 0.00382
10000 kPa, x1 = 0.1501	0.247 ± 0.00526
10000 kPa, x1 = 0.2	0.303 ± 0.00645
10000 kPa, x1 = 0.2487	0.345 ± 0.00741
10000 kPa, x1 = 0.2991	0.376 ± 0.00813
10000 kPa, x1 = 0.3511	0.403 ± 0.0086
10000 kPa, x1 = 0.3984	0.418 ± 0.00884
10000 kPa, x1 = 0.4505	0.426 ± 0.00908
10000 kPa, x1 = 0.501	0.426 ± 0.00908
10000 kPa, x1 = 0.5495	0.419 ± 0.00884
10000 kPa, x1 = 0.5994	0.406 ± 0.0086
10000 kPa, x1 = 0.6508	0.382 ± 0.00813
10000 kPa, x1 = 0.7	0.353 ± 0.00765
10000 kPa, x1 = 0.7506	0.311 ± 0.00669
10000 kPa, x1 = 0.7987	0.268 ± 0.00574
10000 kPa, x1 = 0.848	0.217 ± 0.00454
10000 kPa, x1 = 0.8987	0.154 ± 0.00335
10000 kPa, x1 = 0.9509	0.0804 ± 0.00177
